These results are taken from patent publication US20250375491A1, “MONASCUS PILOSUS STRAIN, COMPOSITION FOR LOSING WEIGHT AND IMPROVING GUT MICROBIOTA COMPOSITION AND USE OF SAID MONASCUS PILOSUS” (SUNWAY BIOTECH CO., LTD., priority 2024, published 2025).

Marks after values point to notes of the source that are not given here.

Type in all cases: in vivo, Sprague-Dawley (SD) rats
The test system of experiment [1] is obesity rats induced by high-fat feed. Kind of experiment: Body weight change of obesity rats induced by high-fat feed. The settings on record: high-fat diet rats, Monascinol 0.31 mg/kg BW daily by tube feeding (human 3 mg/day), 8 weeks. As to the method:
• (1) Msol Group: This group used Monascinol with an adult daily dosage of 3 mg/day. • (2) RL and RH Groups: These groups used the red yeast rice obtained by fermenting the Monascus pilosus fermented rice of the present invention and the red yeast rice contained 3 mg/g of Monascinol, wherein the adult daily dosage of the red yeast rice for the RL and RH groups were 0.5 g/day and 2 g/day respectively. 2. Experiment on Evaluation of Adjustment of Body Fat Composition
(§1) Forty male rats of 8-week-old Sprague-Dawley (SD) strain were purchased from BioLASCO (Taipei, Taiwan) for the experiment. The growing environment was one with constant indoor temperature (25±1° C.), relative humidity of 60%, and 12 hours of cyclic light (light time from 8:00 to 20:00). The rats were acclimatized for four days before the formal experiment, then reared in 5 groups of 8 rats each for 8 weeks and were fed in an ad libitum feeding manner, and their body weight, food intake and water intake were measured at regular intervals during the experimental period.
The feeding dosage was calculated according to the method of “Estimating the maximum safe starting dose in initial clinical trials for therapeutics in adult healthy volunteers” published by the U.S. Food and Drug Administration in 2005. Provided that an adult of 60 kg was used as the base, the principle of dosage conversion is 6.2 times of the recommended daily intake of mg/kg bw/day for human as the recommended daily intake of mg/kg bw/day for rat, and the rat group is configured and fed with the dosage as shown in Table 1. The formulae are as follows: Dose intake per kilogram of body weight in rats=Recommended intake in humans÷Body weight 60 kg×6.2, and thus the daily dose intake per kilogram of body weight in rats can be calculated.
The experimental rats were divided into groups, and the obesity rats were induced by high-fat feed as follows (Please refer to Table 1). • i. NOR Group: Normal animal group. • ii. […]
The body weight of rats was measured weekly and the changes in body weight of each group were compared at the end of the experiment.

Experiment [2] shares this test system. Description: Liver weight and liver/body weight of high-fat diet rats. The settings on record: Monascinol 0.31 mg/kg BW daily by tube feeding (human 3 mg/day), 8 weeks. As to the method: as §1
The experimental rats were divided into groups, and the obesity rats were induced by high-fat feed as follows (Please refer to Table 1). • i. NOR Group: Normal animal group. • ii. HF Group: High-fat control group including obesity rats induced by high-fat feed. • iii. RL Group: Obesity rats induced by high-fat feed and tube-fed daily with red yeast rice powder, equivalent to 0.5 g of red yeast rice containing 1.5 mg of Monascinol per day consumed by an adult […] of 60 kg. • iv. RH Group: Obesity rats induced by high-fat feed and tube-fed red yeast rice powder daily, equivalent to 2 g of red yeast rice containing 6 mg of Monascinol per day consumed by an adult of 60 kg. • v. […]

Experiment [3] shares this test system. Kind of experiment: Body fat mass and body fat rate (perirenal and epididymal fatty tissues). The note with it: high-fat diet rats, Monascinol 0.31 mg/kg BW daily by tube feeding (human 3 mg/day), 8 weeks. As to the method:
as §1
(§2) The experimental rats were divided into groups, and the obesity rats were induced by high-fat feed as follows (Please refer to Table 1). • i. NOR Group: Normal animal group. • ii. HF Group: High-fat control group including obesity rats induced by high-fat feed. • iii. RL Group: Obesity rats induced by high-fat feed and tube-fed daily with red yeast rice powder, equivalent to 0.5 g of red yeast rice containing 1.5 mg of Monascinol per day consumed by an adult rat of 60 kg. • iv. […]
At the time of sacrifice, fatty tissues surrounding the kidneys and the epididymis (perirenal and epididymal fatty tissues) of the experimental animals were removed, and the their weights were measured and recorded. The body fat rate was calculated as follows: […]

For experiment [4] the test system is unchanged. Description: Serum biochemical analysis (TC, TG). The settings on record: high-fat diet rats, Monascinol 0.31 mg/kg BW daily by tube feeding (human 3 mg/day), 8 weeks. As to the method:
as §1, §2
The test was performed using a biochemical autoanalyzer (Model No.: Beckman-700, purchased from Fullerton, California, USA). The items measured were Total Cholesterol (TC), and Triglyceride (TG).

The test system is the same in experiment [5]. Kind of experiment: Liver lipid extraction and determination (TC, TG). The note with it: high-fat diet rats; Monascinol 0.31 mg/kg BW daily by tube feeding (human 3 mg/day), 8 weeks. As to the method:
as §1
(§3) The experimental rats were divided into groups, and the obesity rats were induced by high-fat feed as follows (Please refer to Table 1). • i. NOR Group: Normal animal group. • ii. HF Group: High-fat control group including obesity rats induced by high-fat feed. • iii. […]
(§4) 0.1 g of liver tissue or fecal powder was weighed and 1 mL of chloroform:methanol (2:1, v/v volume ratio) was added, and homogenized with a tissue homogenizer and centrifuged to obtain the supernatant. […] The TC concentration was analyzed using a commercially available biochemical reagent (Model No. BXC 0261, Fortress), and the TG concentration was analyzed using a commercially available biochemical reagent (Model No. BXC 0271, Fortress), as per the kit instruction manual.

Experiment [6] shares this test system. Kind of experiment: Fecal lipid extraction and determination (TC, TG). The settings on record: high-fat diet rats; Monascinol 0.31 mg/kg BW daily by tube feeding (human 3 mg/day), 8 weeks. As to the method:
as §1, §3, §4

Experiment [7] deals with gut microbiota of high-fat diet rats. Kind of experiment: Gut microbiota fecal analysis (full-length 16S sequencing). As to the method:
About 0.3 g of fresh feces was collected into 1.5 mL of eppendorf before fasting for sacrifice, sealed with parafilm, stored at −80° C. for analysis, and sent to BioTools (New Taipei, Taiwan) for analysis.
Total genomic DNA (QIAamp PowerFecal DNA, Qiagen) was extracted from the samples. The DNA concentration was determined by Qubit 4.0 fluorometer (Thermo Scientific) and adjusted to 1 ng/μL. The full-length 16S gene (V1-V9 region) was amplified by 16S gene-specific primers with barcodes (Forward primer 1): 5′ Phos/GCATC-16-base barcode-Sequence ID Number 11, Reverse primer 1: 5′Phos/GCATC-16-base barcode-Sequence ID Number 12). PCR reactions were performed using KAPA HiFi HotStart ReadyMix (Roche): at 95° C. for 3 min. and 20-27 cycles (Sample Dependency): at 95° C. for 30 sec., at 57° C. for 30 sec., at 72° C. for 60 sec; at 72° C. for 5 min., and finally stored at 4° C. for future use. PCR products were monitored on 1% agarose gels. Samples of approximately 1500 bp bright bands were selected and purified by using AMPure PB Beads for SMRTbell library preparation.
SMRTbell libraries were prepared based on full-length 16S gene amplifications with barcoded primers used in the Multiplex SMRTbell Library Preparation and Sequencing Program (Pacbio). Sequencing was performed in circular consensus sequencing (CCS) mode on a PacBio Sequel Ile instrument, generating HiFi read with a Phred Scale=30. The DNA to be tested will be sequenced iteratively. By comparing the results of the reverse sequencing, sequencing errors will be corrected, ultimately achieving a high accuracy of >99.9% (QV30).
Information Analysis (Sequential data processing/denoising and species annotation) The sample data from the downstream data were sorted out according to the Barcode sequence and PCR amplification primer sequences. After the removal of the barcodes and primer sequences, the data were imported into QIIME2 (v2019.7.0; https://qiime2.org/) and all the sequences of the samples were saved into one corresponding object Artifacts. QIIME2 cutadapt was used to remove the amplicon variant primers (forward primer 2: Sequence ID Number 13; reverse primer 2: Sequence ID Number 14), and the sequence with the primers removed will be used as QIIME2 DADA2. Input Reads.
The denoising analysis began with the filtering of sequences, setting each sequence to be cropped to a specified length (forward reads: 280 bp; reverse reads: 220 bp) and setting the MaxEE (forward reads: 2; reverse reads: 2) parameter as the maximum number of expected error bases allowed for the sequence. This was followed by denoising, the core algorithm of DADA2 utilizing the information of sequence abundance, quality score, and relationships between sequences to correct the […] of sequencing errors and to infer the real sequences. Splicing was performed after denoising each end of the sequence (minimum overlap length 20 bp; overlap region was not allowed to be mismatched). Finally, the spliced sequences are subjected to chimera removal by comparing the sequences with higher abundance in the sample. If a sequence with low abundance is similar to several sequences, it can be recognized as a chimera and removed from the sample. Sequences after denoising analysis were used as representative sequences of Amplicon Sequence Variants (ASVs) and can be obtained from the ASV table for subsequent species annotation. The QIIME2 feature-classifier (v2019.7.0; https://qiime2.org/) was used to select machine learning-based classification methods and to train naïve bayes classifiers for different databases and specific variability regions. The taxonomic annotation of ASVs represented by this classifier yields taxonomic information and the composition of the microbial phyla of each sample at each classification level including kingdom, phylum, class, order, family, genus, and species.
Welch's t-test was analyzed by STAMP (v2.1.3), and the intergroup species differences were plotted as bar charts. […]

[8] abbreviates: FIGS. 9A-9D, high-fat diet rats.
The mark [9] stands for this setting: order level, FIG. 7C, high-fat diet rats.
[10] abbreviates: phylum level, FIG. 7A, high-fat diet rats vs HF group.

As to Monascinol [Msol], the “Weight before Sacrifice” value in experiment [1] (after fasting) is 488.5 ± 31.7^a g. In addition, in experiment [1], the “Weight 8 week” value is given as 512.1 ± 31.1^a g and the Weight gain is reported as 220.8 ± 38.8^a g. Also, in experiment [2], the “Liver Weight/Body Weight” value is 3.28 ± 0.37^b % and the Liver weight is 16.84 2.31^b g. Moreover, the Fat/body weight in experiment [3] (body fat percentage) is given as 3.35 ± 0.55^b %. Besides, in experiment [3] (perirenal and epididymal fat), the Fat weight is reported as 17.95 3.55^b g. In experiment [4], the TC was 65.0 ± 10.4^b mg/dL and the TG is listed as 61.7 ± 10.7^a mg/dL. Also, in experiment [5], the “Liver TC” value was 5.05 ± 0.54^a mg/g and the “Liver TG” value was 14.40 ± 1.57^a mg/g. Also, in experiment [6], the “Feces TC” value was 46.22 ± 4.72^c mg/g and the “Feces TG” value was 61.27 4.80^cd mg/g. The “F/B ratio (abundance ratio of Firmicutes to Bacteroidetes)” value in experiment [7] (FIG. 7A, high-fat diet rats vs HF group) is listed as “decrease”. In experiment [7] (setting [8]), the “effect on B. thetaiotaomicron in the intestines” value was “most significant” and the “intestinal abundance of Dubosiella newyorkensis” value is recorded as “increase”. Moreover, in experiment [7] (setting [9]), the “bacterial abundance of Bifidobacteriales in the intestine” value was “increased” and the “intestinal abundance of Verrucomicrobiales” value is reported as “increased”. For the same substance, the “abundance of Eubacteriales” value in experiment [7] (order level, FIG. 8, HF group 50.14%, high-fat diet rats, Monascinol (MSol, 3 mg/day), 8 weeks) was found to be 43.21%. In addition, in experiment [7] (setting [10]), the “abundance of Bacteroidetes” value is listed as “increase” and the “abundance of Firmicutes” value was “decrease”. The “abundance of A. muciniphila” value in experiment [7] (species level, FIG. 7F, high-fat diet-induced obesity rats) is “increased”.
